Results taken from patent US20080009418A1, “Selective Inhibitors” (Alchemia LTD., priority 2004, published 2008).

Experiments:
Human δ-opioid (DOP) = biological target: T1, Human δ-opioid (DOP) (Homo sapiens, UniProt P41143); test: Radioligand binding, human δ-opioid (DOP) membranes, FlashPlate, [3H]-Bremazocine; details: compound at 10 μM; [3H]-Bremazocine, human DOP membranes
T1 construct: purchased Perkin Elmer Biosignal
Procedure, shortened: (§1)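 Cloned human receptor membranes were coated onto FlashPlate wells and incubated with radioligand and compound (added from a 0.5 mM DMSO daughter plate) for 1 hour at room temperature in the dark. Scintillation counting gave percent inhibition, with DMSO defining total and reference ligand defining non-specific binding.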

[1] = biological target: T2, Human neuropeptide Y (NPY-Y1) (Homo sapiens, UniProt P25929); test: Radioligand binding, human neuropeptide Y NPY-Y1 membranes, FlashPlate, [125I]-PYY; details: compound at 10 μM; [125I]-PYY, human NPY-Y1 membranes
T2 construct: purchased Perkin Elmer Biosignal
T2 sequence (P25929 1-384): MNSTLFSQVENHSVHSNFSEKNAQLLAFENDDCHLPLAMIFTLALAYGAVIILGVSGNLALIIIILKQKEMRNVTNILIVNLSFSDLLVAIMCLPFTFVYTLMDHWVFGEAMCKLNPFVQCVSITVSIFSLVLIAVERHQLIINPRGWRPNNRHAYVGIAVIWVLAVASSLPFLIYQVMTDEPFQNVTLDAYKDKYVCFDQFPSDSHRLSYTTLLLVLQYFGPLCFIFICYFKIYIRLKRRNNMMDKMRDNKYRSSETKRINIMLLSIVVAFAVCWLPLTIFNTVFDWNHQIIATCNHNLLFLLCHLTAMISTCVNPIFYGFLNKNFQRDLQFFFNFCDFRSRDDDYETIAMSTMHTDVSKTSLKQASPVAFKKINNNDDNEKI
Procedure, shortened: as §1

Human opioid (ORL1) = biological target: T3, Human opioid (ORL1) (Homo sapiens, UniProt P41146); test: Radioligand binding, human opioid ORL1 membranes, FlashPlate, [125I]-Nociceptin; details: compound at 10 μM; [125I]-Nociceptin, human ORL1 membranes; 10 µM
T3 construct: purchased Perkin Elmer Biosignal
Procedure, shortened: as §1

Mouse urotensin (mUR2) = biological target: T4, Mouse urotensin (mUR2) (Mus musculus, UniProt Q8VIH9); test: Radioligand binding, mouse urotensin mUR2 membranes, FlashPlate, [125I]-Urotensin II; details: compound at 10 μM; [125I]-Urotensin II, mouse mUR2 membranes
T4 construct: purchased Perkin Elmer Biosignal
T4 sequence (Q8VIH9 1-385): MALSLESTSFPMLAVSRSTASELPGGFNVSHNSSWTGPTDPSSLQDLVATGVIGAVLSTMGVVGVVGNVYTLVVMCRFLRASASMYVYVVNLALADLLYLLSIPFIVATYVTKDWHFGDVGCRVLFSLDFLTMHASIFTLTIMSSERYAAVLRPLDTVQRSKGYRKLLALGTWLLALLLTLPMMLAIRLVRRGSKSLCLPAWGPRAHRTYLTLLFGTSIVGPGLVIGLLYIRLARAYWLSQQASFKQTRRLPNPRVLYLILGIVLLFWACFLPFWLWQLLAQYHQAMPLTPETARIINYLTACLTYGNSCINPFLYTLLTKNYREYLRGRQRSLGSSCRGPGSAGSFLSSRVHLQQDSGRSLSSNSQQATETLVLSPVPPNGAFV
Procedure, shortened: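 Cloned mouse urotensin (mUR2) receptor membranes from Perkin Elmer Biosignal were immobilized in FlashPlate microplates using a proprietary coating. Each well got 19.5 μl buffer, then 0.5 μl of DMSO, reference ligand, or compound. Adding 5 μl of [125I]-Urotensin II, diluted to 5× final concentration in binding buffer, started binding. Plates were sealed with TopSeal-A and incubated 1 hour at room temperature in the dark. Wells were counted for 30 seconds each on a TopCount after a 60-second delay, and percentage inhibition was calculated.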

Human μ-opioid (MOP) = biological target: T5, Human μ-opioid (MOP) (Homo sapiens, UniProt P35372); test: Radioligand binding, human μ-opioid (MOP) membranes, FlashPlate, [3H]-Naloxone; details: compound at 10 μM; [3H]-Naloxone, human MOP membranes; 10 µM
T5 construct: purchased Perkin Elmer Biosignal
Procedure, shortened: as §1

Human melanocortin (MC5) = biological target: T6, Human melanocortin (MC5) (Homo sapiens, UniProt P33032); test: Radioligand binding, human melanocortin MC5 membranes, FlashPlate, [125I]-NDP-αMSH; details: compound at 10 μM, [125I]-NDP-αMSH, human MC5 membranes
T6 construct: purchased Perkin Elmer Biosignal
Procedure, shortened: as §1

Human Melanocortin (MC4) = biological target: T7, Human Melanocortin (MC4) (Homo sapiens, UniProt P32245); test: Radioligand binding, human melanocortin MC4 membranes, FlashPlate, [125I]-NDP-αMSH; details: compound at 10 μM, [125I]-NDP-αMSH, human MC4 membranes
T7 construct: purchased Perkin Elmer Biosignal
Procedure, shortened: as §1

[2] = biological target: T8, Human melanin-concentrating hormone (MCH1) (Homo sapiens, UniProt Q99705); test: Radioligand binding, human melanin-concentrating hormone MCH1 membranes, FlashPlate, [125I]-S36057; details: compound at 10 μM; [125I]-S36057, human MCH1 membranes; 10 µM
T8 construct: purchased Perkin Elmer Biosignal
Procedure, shortened: as §1

Human κ-Opioid (KOP) = biological target: T9, Human κ-Opioid (KOP) (Homo sapiens, UniProt P41145); test: Radioligand binding, human κ-opioid (KOP) membranes, filtration, [3H]-Diprenorphine; details: compound at 10 μM; [3H]-Diprenorphine, human KOP membranes
T9 construct: purchased Perkin Elmer Biosignal
Procedure, shortened: (§2)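 Percent inhibition of radioligand binding measured on recombinant human membranes: NK1 with [125I]-Substance P, KOP with [3H]-Diprenorphine. Incubation 1 h at room temperature, then harvest onto 0.3% PEI-soaked filters, cold Tris-HCl pH 7.4 washes and scintillation counting; non-specific binding from reference ligand wells.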

Human Melanocortin (MC3) = biological target: T10, Human Melanocortin (MC3) (Homo sapiens, UniProt P41968); test: Radioligand binding, human melanocortin MC3 membranes, FlashPlate, [125I]-NDP-αMSH; details: compound at 10 μM, [125I]-NDP-αMSH, human MC3 membranes
T10 construct: purchased Perkin Elmer Biosignal
Procedure, shortened: as §1

Human neurokinin (NK1) = biological target: T11, Human neurokinin (NK1) (Homo sapiens, UniProt P25103); test: Radioligand binding, human neurokinin NK1 membranes, filtration, [125I]-Substance P; details: compound at 10 μM; [125I]-Substance P, human NK1 membranes
T11 construct: purchased Perkin Elmer Biosignal
Procedure, shortened: as §2

T3 sequence (P41146 whole entry): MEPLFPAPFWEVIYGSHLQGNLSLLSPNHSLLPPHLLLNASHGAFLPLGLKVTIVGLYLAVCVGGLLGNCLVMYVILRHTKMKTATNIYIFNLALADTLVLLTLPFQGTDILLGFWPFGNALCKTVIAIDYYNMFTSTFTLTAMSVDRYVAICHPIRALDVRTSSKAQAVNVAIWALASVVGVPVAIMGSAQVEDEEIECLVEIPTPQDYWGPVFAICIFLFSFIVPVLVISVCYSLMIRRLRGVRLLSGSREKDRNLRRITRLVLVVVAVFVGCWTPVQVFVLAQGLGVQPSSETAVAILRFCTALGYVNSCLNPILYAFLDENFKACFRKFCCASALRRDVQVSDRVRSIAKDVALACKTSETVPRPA
T10 sequence (P41968 whole entry): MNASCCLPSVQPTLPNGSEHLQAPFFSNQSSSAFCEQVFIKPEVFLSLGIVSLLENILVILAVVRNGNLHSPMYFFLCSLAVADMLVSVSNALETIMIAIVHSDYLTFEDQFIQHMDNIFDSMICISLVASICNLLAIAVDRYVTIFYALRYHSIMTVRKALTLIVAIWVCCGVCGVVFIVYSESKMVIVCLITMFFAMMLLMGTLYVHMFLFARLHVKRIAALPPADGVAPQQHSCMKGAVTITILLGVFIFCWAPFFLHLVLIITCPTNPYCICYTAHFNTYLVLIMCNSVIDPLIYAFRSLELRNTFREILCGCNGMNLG
T11 sequence (P25103 whole entry): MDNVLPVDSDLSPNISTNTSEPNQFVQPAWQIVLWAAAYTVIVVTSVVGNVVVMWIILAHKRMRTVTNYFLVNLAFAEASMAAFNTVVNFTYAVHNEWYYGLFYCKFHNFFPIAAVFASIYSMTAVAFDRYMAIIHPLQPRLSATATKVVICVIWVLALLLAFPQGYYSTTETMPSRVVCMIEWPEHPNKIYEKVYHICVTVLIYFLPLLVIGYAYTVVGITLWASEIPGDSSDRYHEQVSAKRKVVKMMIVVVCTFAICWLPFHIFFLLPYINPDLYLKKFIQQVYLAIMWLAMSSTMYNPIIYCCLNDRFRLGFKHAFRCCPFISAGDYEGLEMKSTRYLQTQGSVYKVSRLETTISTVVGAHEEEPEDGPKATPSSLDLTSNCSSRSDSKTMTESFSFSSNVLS
T8 sequence (Q99705 whole entry): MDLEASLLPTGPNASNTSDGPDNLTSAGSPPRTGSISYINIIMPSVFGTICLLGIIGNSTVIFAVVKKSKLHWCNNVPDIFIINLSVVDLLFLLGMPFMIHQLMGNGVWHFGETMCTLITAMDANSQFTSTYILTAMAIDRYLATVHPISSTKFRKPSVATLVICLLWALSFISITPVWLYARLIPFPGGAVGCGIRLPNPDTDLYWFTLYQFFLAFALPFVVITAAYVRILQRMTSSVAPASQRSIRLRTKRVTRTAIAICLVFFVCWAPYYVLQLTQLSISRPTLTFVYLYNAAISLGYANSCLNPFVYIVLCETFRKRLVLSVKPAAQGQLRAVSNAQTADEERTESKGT
T6 sequence (P33032 whole entry): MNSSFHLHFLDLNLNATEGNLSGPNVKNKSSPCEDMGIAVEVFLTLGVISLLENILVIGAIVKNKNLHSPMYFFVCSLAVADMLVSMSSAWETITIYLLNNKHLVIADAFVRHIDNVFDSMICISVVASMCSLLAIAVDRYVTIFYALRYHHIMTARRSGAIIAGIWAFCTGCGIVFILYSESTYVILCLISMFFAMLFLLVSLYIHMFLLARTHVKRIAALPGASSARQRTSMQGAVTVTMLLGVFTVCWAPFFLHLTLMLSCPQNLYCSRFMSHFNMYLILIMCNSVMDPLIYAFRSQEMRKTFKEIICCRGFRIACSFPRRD
T7 sequence (P32245 whole entry): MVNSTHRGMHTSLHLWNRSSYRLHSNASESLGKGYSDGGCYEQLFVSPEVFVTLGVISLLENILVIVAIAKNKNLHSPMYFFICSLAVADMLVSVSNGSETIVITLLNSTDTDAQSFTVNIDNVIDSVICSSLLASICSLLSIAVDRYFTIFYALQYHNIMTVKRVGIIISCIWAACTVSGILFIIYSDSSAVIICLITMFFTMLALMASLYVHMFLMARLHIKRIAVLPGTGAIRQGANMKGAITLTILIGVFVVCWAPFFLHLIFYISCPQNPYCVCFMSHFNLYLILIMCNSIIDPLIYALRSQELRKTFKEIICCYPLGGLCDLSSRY
T1 sequence (P41143 whole entry): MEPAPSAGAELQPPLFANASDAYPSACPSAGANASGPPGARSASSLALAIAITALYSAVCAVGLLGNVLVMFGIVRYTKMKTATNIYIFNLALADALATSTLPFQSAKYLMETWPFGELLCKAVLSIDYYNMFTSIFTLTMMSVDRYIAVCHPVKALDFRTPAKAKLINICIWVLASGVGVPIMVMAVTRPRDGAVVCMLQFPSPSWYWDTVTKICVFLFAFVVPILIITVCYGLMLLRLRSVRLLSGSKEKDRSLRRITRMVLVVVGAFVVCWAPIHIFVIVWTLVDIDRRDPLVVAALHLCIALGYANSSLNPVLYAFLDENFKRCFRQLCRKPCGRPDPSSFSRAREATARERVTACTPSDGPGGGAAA
T5 sequence (P35372 whole entry): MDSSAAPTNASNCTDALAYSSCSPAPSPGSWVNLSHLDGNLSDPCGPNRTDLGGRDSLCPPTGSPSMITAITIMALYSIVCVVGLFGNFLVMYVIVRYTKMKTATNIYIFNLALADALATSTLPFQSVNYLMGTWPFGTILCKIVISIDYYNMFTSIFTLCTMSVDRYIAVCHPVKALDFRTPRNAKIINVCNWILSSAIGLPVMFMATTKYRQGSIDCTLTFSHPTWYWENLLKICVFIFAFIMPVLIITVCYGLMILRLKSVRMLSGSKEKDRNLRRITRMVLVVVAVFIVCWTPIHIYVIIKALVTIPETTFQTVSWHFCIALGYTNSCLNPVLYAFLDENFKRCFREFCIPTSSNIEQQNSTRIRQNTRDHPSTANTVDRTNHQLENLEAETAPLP
T9 sequence (P41145 whole entry): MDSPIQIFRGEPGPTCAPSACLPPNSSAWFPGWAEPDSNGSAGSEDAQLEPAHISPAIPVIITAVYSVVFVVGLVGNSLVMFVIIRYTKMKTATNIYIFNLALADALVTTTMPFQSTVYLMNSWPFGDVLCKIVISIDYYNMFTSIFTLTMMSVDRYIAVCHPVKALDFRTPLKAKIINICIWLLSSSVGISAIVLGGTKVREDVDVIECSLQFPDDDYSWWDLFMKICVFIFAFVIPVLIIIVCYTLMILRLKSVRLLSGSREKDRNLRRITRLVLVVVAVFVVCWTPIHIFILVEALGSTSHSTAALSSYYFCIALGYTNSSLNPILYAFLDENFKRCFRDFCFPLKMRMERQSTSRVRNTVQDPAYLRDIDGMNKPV

Row | Structure (SMILES) | A1: inhibition of radioligand binding (Human δ-opioid (DOP)) | A9: inhibition of radioligand binding [1] | A10: inhibition of radioligand binding (Human opioid (ORL1)) | A11: inhibition of radioligand binding (Mouse urotensin (mUR2)) | A7: inhibition of radioligand binding (Human μ-opioid (MOP)) | A5: inhibition of radioligand binding (Human melanocortin (MC5); 10 µM) | A4: inhibition of radioligand binding (Human Melanocortin (MC4); 10 µM) | A6: inhibition of radioligand binding [2] | A2: inhibition of radioligand binding (Human κ-Opioid (KOP)) | A3: inhibition of radioligand binding (Human Melanocortin (MC3)) | A8: inhibition of radioligand binding (Human neurokinin (NK1)) | A5: inhibition of radioligand binding (Human melanocortin (MC5)) | A4: inhibition of radioligand binding (Human Melanocortin (MC4)) | A3: inhibition of radioligand binding (Human Melanocortin (MC3); 10 µM)
1 | NCCCC(=O)NC1C(OCc2ccc3ccccc3c2)OC(COCc2ccccc2)C(O)C1OCc1ccc(Cl)cc1 (single isomer, unassigned) [compound 456] | − (“−” indicates less than 50% inhibition at 10 μM) | − (“−” indicates less than 50% inhibition at 10 μM) | − (“−” indicates less than 50% inhibition at 10 μM) | − (“−” indicates less than 50% inhibition at 10 μM) | − (“−” indicates less than 50% inhibition at 10 μM) | + (“+” indicates greater than 50% inhibition at 10 μM) | − (“−” indicates less than 50% inhibition at 10 μM) | + (“+” indicates greater than 50% inhibition at 10 μM) | − (“−” indicates less than 50% inhibition at 10 μM) | − (“−” indicates less than 50% inhibition at 10 μM) | + (“+” indicates greater than 50% inhibition at 10 μM) | – | – | –
2 | NCCCC(=O)NC1C(OCc2ccc3ccccc3c2)OC(COCc2ccccc2)C(O)C1OCc1ccc(Cl)cc1 (single isomer, unassigned) [compound 457] | − (“−” indicates less than 50% inhibition at 10 μM) | − (“−” indicates less than 50% inhibition at 10 μM) | + (“+” indicates greater than 50% inhibition at 10 μM) | − (“−” indicates less than 50% inhibition at 10 μM) | + (“+” indicates greater than 50% inhibition at 10 μM) | − (“−” indicates less than 50% inhibition at 10 μM) | − (“−” indicates less than 50% inhibition at 10 μM) | − (“−” indicates less than 50% inhibition at 10 μM) | − (“−” indicates less than 50% inhibition at 10 μM) | − (“−” indicates less than 50% inhibition at 10 μM) | + (“+” indicates greater than 50% inhibition at 10 μM) | – | – | –
3 | NCCCC(=O)NC1C(OCc2ccc3ccccc3c2)OC(COCc2ccc(Cl)cc2)C(O)C1OCc1ccc(Cl)cc1 (single isomer, unassigned) [compound 458] | − (“−” indicates less than 50% inhibition at 10 μM) | − (“−” indicates less than 50% inhibition at 10 μM) | + (“+” indicates greater than 50% inhibition at 10 μM) | − (“−” indicates less than 50% inhibition at 10 μM) | + (“+” indicates greater than 50% inhibition at 10 μM) | – | – | + (“+” indicates greater than 50% inhibition at 10 μM) | − (“−” indicates less than 50% inhibition at 10 μM) | + (“+” indicates greater than 50% inhibition at 10 μM) | + (“+” indicates greater than 50% inhibition at 10 μM) | + (“+” indicates greater than 50% inhibition at 10 μM) | + (“+” indicates greater than 50% inhibition at 10 μM) | –
4 | NCCCC(=O)NC1C(OCc2ccc3ccccc3c2)OC(COCc2ccc(Cl)cc2)C(O)C1OCc1ccc(Cl)cc1 (single isomer, unassigned) [compound 459] | − (“−” indicates less than 50% inhibition at 10 μM) | − (“−” indicates less than 50% inhibition at 10 μM) | + (“+” indicates greater than 50% inhibition at 10 μM) | − (“−” indicates less than 50% inhibition at 10 μM) | − (“−” indicates less than 50% inhibition at 10 μM) | – | – | + (“+” indicates greater than 50% inhibition at 10 μM) | − (“−” indicates less than 50% inhibition at 10 μM) | + (“+” indicates greater than 50% inhibition at 10 μM) | + (“+” indicates greater than 50% inhibition at 10 μM) | + (“+” indicates greater than 50% inhibition at 10 μM) | + (“+” indicates greater than 50% inhibition at 10 μM) | –
5 | NCCCC(=O)NC1C(OCc2ccc3ccccc3c2)OC(COCc2ccc3ccccc3c2)C(O)C1OCc1ccc2ccccc2c1 (single isomer, unassigned) [compound 460] | − (“−” indicates less than 50% inhibition at 10 μM) | − (“−” indicates less than 50% inhibition at 10 μM) | − (“−” indicates less than 50% inhibition at 10 μM) | − (“−” indicates less than 50% inhibition at 10 μM) | − (“−” indicates less than 50% inhibition at 10 μM) | – | − (“−” indicates less than 50% inhibition at 10 μM) | − (“−” indicates less than 50% inhibition at 10 μM) | − (“−” indicates less than 50% inhibition at 10 μM) | – | + (“+” indicates greater than 50% inhibition at 10 μM) | + (“+” indicates greater than 50% inhibition at 10 μM) | – | − (“−” indicates less than 50% inhibition at 10 μM)
